Test results reported in US20250009852A1, “DEPLETING EGFR AND HER2 OVERCOMES RESISTANCE TO EGFR INHIBITORS IN COLORECTAL CANCER” (Health Research, Inc., priority 2021, published 2025).

How the values were obtained:
[1] = tested on: HER3, IGF1R, MET, SRC, AKT, ERK, MEK, NRAS, HRAS, caspase 3; experiment: Western blotting of tumor homogenates: other signaling proteins; assay type: in vivo, mouse; conditions: HCT116 and HT29 tumors; single agent
Protocol: (§1) To prepare whole cell lysates, cells were washed with PBS twice, mixed with 1× cell lysis buffer from Cell Signaling Technology supplemented with 2 mM PMSF and a protease inhibitor cocktail from Roche Applied Science, placed on ice for 10 min, sonicated at 0-4° C. to enhance cell lysis using a Branson Model 450 sonifier, and finally centrifuged at 13,000 g for 10 min at 4° C., and the supernatant fraction is collected as whole cell lysate. Tumor and samples were mixed with RIPA buffer (25 mM Tris-HCl, PH7.6, 150 mM NaCl, 1% Nonidet P-40, 1% sodium deoxycholate, and 0.1% SDS), which was supplemented with 2 mM PMSF, the protease inhibitor cocktail mentioned above, phosphatase inhibitor cocktail 2 and phosphatase inhibitor cocktail 3 from Sigma-Aldrich at 14.3 μl buffer per mg tissue, and homogenized in a Dounce homogenizer. The homogenates were cleared by centrifugation at 13,000 g for 15 min at 4° C.
Protein concentrations in all samples were measured using the BCA Assay Kit. For Western blotting, each sample was mixed with 4× loading dye, heated for 5 min at 95° C., and resolved by SDS-PAGE (8-12.5%). Proteins were transferred to polyvinylidene fluoride membrane, probed with specific antibodies, and detected using either Luminata Classico (Millipore) or Luminata Cresendo (Millipore). […] The beads were washed three times with IP buffer, suspended in 2× SDS loading buffer, boiled for 5 min, and analyzed by Western blotting.
SCID mice (C.B.17 SCID) were bred by the Laboratory Animal Shared Resource at Roswell Park Comprehensive Cancer Center. […] Subcutaneous tumor volume was measured using length ×width^2÷2. Tumor volume was measured three times each week. Orthotopic tumor growth was monitored by bioluminescence weekly. Mice were given D-luciferin (150 mg/kg) by ip and anesthetized with isoflurane, and tumor burden was measured by bioluminescence using the IVIS Spectrum In Vivo Imaging System (PerkinElmer). Drug treatment was started when significant tumor growth was detected. […] The mice were closely monitored for sign of adverse effects and weighed three times each week.

EGFR and HER2 [2] = target: T1, EGFR and HER2 (Homo sapiens, UniProt P00533); experiment: Western blotting of whole cell lysates: EGFR and HER2; assay type: cell-based; conditions: HB-EGF 20 ng/ml in medium without serum
T1 construct: Both EGFR and HER2 were expressed in HCT116, HT29, and SW48 cells; endogenous in cells; host or cells: HCT116, HT29, SW48 (SW620 lacks both)
Protocol: as §1
(§2) Protein concentrations in all samples were measured using the BCA Assay Kit. For Western blotting, each sample was mixed with 4× loading dye, heated for 5 min at 95° C., and resolved by SDS-PAGE (8-12.5%). Proteins were transferred to polyvinylidene fluoride membrane, probed with specific antibodies, and detected using either Luminata Classico (Millipore) or Luminata Cresendo (Millipore). For IP, cell lysates (0.5 mg protein/sample) were incubated with a desired antibody overnight at 4° C., followed by incubation of 500 μl sample with 30 μl G-Sepharose beads (2 mg/ml) for 1 h at RT. The beads were washed three times with IP buffer, suspended in 2× SDS loading buffer, boiled for 5 min, and analyzed by Western blotting.

EGFR and HER2 [3] = experiment: as above; assay type: cell-based, human; conditions: HB-EGF 20 ng/ml alone, without PEPD^G278D and FBS
Protocol: as §1, §2

| Substance | expression or phosphorylation of the proteins analyzed in tumors [1] | effect on EGFR depletion induced by PEPD^G278D (EGFR and HER2 [2]) | expression of EGFR or HER2 (EGFR and HER2 [3]) |
| --- | --- | --- | --- |
| enoxaparin [EP] | neither EP nor aderbasib had any effect | – | – |
| HB-EGF: recombinant human HB-EGF, a high affinity EGFR ligand [reference compound] | – | mimicked the effect of serum | did not modulate the expression |
